Source: patent US7700624B2, “3-aminocyclopentanecrboxamides as modulators of chemokine receptors” (Incyte Corporation, priority 2005, dated 2010)

Molecular target: T1, CCR2 (Homo sapiens, UniProt P41597)
T1 construct: Peripheral Blood Mononuclear Cells (PBMCs) prepared from normal human whole blood via density gradient centrifugation; endogenous in cells; host or cells: human PBMCs from normal whole blood
T1 sequence (P41597 1-360 isoform P41597-2): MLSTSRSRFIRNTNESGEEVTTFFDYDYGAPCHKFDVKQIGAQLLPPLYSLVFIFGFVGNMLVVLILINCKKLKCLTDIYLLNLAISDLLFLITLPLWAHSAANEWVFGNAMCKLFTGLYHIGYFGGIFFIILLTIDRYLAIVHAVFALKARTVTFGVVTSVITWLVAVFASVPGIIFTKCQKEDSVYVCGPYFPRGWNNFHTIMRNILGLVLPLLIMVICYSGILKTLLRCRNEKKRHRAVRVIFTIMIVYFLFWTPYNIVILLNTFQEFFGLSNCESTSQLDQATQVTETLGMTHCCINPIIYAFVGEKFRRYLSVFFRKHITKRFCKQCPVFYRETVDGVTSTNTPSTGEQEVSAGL
Assay: CCR2 binding assay: 125I-labeled MCP-1 binding to human PBMCs
Conditions: inhibition of specific binding of 0.1 to 0.2 nM 125I-labeled MCP-1 to human PBMCs, 30 min at room temperature
From the text: The CCR2 antagonist activity of compounds of the invention can be reported as the inhibitor concentration required for 50% inhibition (IC50 values) of specific binding in receptor binding assays using ^125I-labeled MCP-1, as ligand, and Peripheral Blood Mononuclear Cells (PBMCs) prepared from normal human whole blood via density gradient centrifugation. Specific binding is preferably defined as the total binding (e.g., total cpm on filters) minus the non-specific binding. Non-specific binding is defined as the amount of cpm still detected in the presence of excess unlabeled competitor (e.g., MCP-1).
Human PBMCs are used to test compounds of the invention in a binding assay. For example, 200,000 to 500,000 cells are incubated with 0.1 to 0.2 nM ^125I-labeled MCP-1, with or without unlabeled competitor (10 nM MCP-1) or various concentrations of compounds to be tested. ^125I-labeled MCP-1, are prepared by suitable methods or purchased from commercial vendors (Perkin Elmer, Boston Mass.). The binding reactions are performed in 50 to 250 μL of a binding buffer consisting of […] pH 7.2, and 0.1% BSA (bovine serum albumin), for 30 min at room temperature. The binding reactions are terminated by harvesting the membranes by rapid filtration through glass fiber filters (Perkin Elmer) which is presoaked in 0.3% polyethyleneimine or Phosphate Buffered Saline (PBS). The filters were rinsed with approximately 600 μL of binding buffer containing 0.5 M NaCl or PBS, then dried, and the amount of bound radioactivity is determined by counting on a Gamma Counter (Perkin Elmer).

Structure (SMILES) | IC50
CC(C)[C@]1(C(=O)N2CCN(c3cc(C(F)(F)F)ccn3)CC2)CC[C@@H](NC2CCC(O)(c3ccc(-c4ncccn4)cn3)CC2)C1 (stereo partly drawn) [Example 1, 4-{[(1R3S)-3-isopropyl-3-({4-[4-(trifluoromethyl)pyridin-2-yl]piperazin-1-yl}carbonyl)cyclopentyl]amino}-1-(5-pyrimidin-2-ylpyridin-2-yl)cyclohexanol] | 19.8 nM
CCCNC(=O)CCC1CCCC1N[C@@H]1CC[C@@](C(=O)N2CCN(c3cc(C(F)(F)F)ccn3)CC2)(C(C)C)C1 (stereo partly drawn) [Example 17, 3-(2-{[(1R,3S)-3-isopropyl-3-({4-[4-(trifluoromethyl)pyridin-2-yl]piperazin-1-yl}carbonyl)cyclopentyl]amino}cyclopentyl)-N-propylpropanamide] | 190 nM
CC(C)[C@]1(C(=O)N2CCN(c3cc(C(F)(F)F)ccn3)CC2)CC[C@@H](N(C)C2CCOC2)C1 (stereo partly drawn) [Example 24, N-[(1R,3S)-3-isopropyl-3-({4-[4-(trifluoromethyl)pyridin-2-yl]piperazin-1-yl}carbonyl)cyclopentyl]—N-methyltetrahydrofuran-3-amine] | 181 nM
